In a melting point compilation (Tetko et al.):

Compound	melting point
CC(O)[C@@]1(O)CC[C@H]2[C@@H]3CCC4(C)C[C@H](O)CC[C@]4(C)[C@H]3CC[C@@]21C (stereo partly drawn)	254 to 255 °C
Cn1ncc2c(NNC3=CC(=O)c4ccccc4C3=O)ncnc21	226 °C
CC(C)(C)c1nc(N)nc(O)n1	275 °C
C=C1C(C)CCC2(C)C3=C(C(=O)C4(CC4C)C(OC(C)=O)C3=O)C(OC(C)=O)C(O)C12 (stereo not drawn)	233 °C
N[C@@H](Cc1cc(Br)c(O)c(Br)c1)C(=O)O	245 °C
CC=CC(C)C(C)C=CC (stereo not drawn)	-64.8 °C
CN[C@H](CC(=O)O)C(=O)O	187 to 192 °C
O=C(O)C=Cc1ccccc1C(=O)O	197 to 202 °C
CC(=O)O[C@H]1CCCC2=CC(=O)CC[C@@]21C	89 to 90 °C
NC(=O)c1sccc1N	120 to 122 °C
CC12CCC(O)CC1CCC1C2CCC2(C)C1CCC21OCCO1 (stereo not drawn)	151 °C
COC(CC(C)=O)OC	-82 °C
Clc1cc2c(cc1Cl)Oc1c(cc(Cl)c(Cl)c1Cl)O2	240 °C
CC(=NC#N)N(C)Cc1ccc(Cl)nc1	98.9 °C
CC(C)(C)C(=O)CCl	-1 °C
O=C(O)c1ccc(C(=O)O)c([N+](=O)[O-])c1	270 to 272 °C
CCN(CC)C(=O)C(Cl)=C(C)OP(=O)(OC)OC	-45 °C
O=[N+]([O-])c1ccccc1C=NO	100 °C
CC1C=CC(C2CC(=O)OC2=O)C12CC2 (stereo not drawn)	98 °C
Cc1ccc(Cl)cc1C	-6 °C
O=Cc1ccc(N2CCOCC2)c([N+](=O)[O-])c1	53 to 55 °C

Compound	melting point
NNc1nc(N)nc(-c2ccccn2)n1	287 to 289 °C
C=C(C)CCCCCCCCCCCCCC	2 °C
CC(C)(C)S(=O)(=O)c1cnc(-c2ccccn2)nc1N	266 to 268 °C
Cc1nc2ccccn2c1C=O	117 to 118 °C
CC(Cl)CCl (stereo not drawn)	-100 °C
Nc1nc(NC2CC2)c2ncn(C3C=CC(CO)C3)c2n1 (stereo not drawn)	165 °C
Nc1cccc2nonc12	109 to 111 °C
Cc1cncc([N+](=O)[O-])c1	96 °C
NCC(=O)O	182 °C
Brc1ccc(I)cn1	124 °C
Clc1ccc(Br)c(Cl)n1	70 °C
CON=C(C(=O)O)c1csc(N)n1	176 to 182 °C
Nc1c(Br)cc(F)c(Cl)c1Br	98 °C
O=[N+]([O-])c1ccc(S(=O)(=O)Cl)cc1	78 °C
O=C1NC(=O)C2(CCCCC2)N1	218 to 220 °C
CCCCc1ccc(C(=O)O)nc1	97 °C
Clc1cc(Cl)c2c(c1)oc1cc(Cl)cc(Cl)c12	207 °C
CC(C)[C@@H](N)C(=O)O	302 to 303 °C
Clc1ccc(-c2c(Cl)cc(Cl)cc2Cl)cc1	65 °C
FC1(F)C(Cl)=C(Cl)C(F)(F)C1(F)F	-106 °C
CC12CCC(C(=O)/C(=C\c3ccccc3[N+](=O)[O-])C1=O)C2(C)C (stereo not drawn)	140 to 141 °C

Compound	melting point
NC(CCP(=O)(O)O)C(=O)O (racemic)	225 to 228 °C
COC1OC(C(=O)O)C(OC2OC(C(=O)O)C(OC)C(O)C2O)C(O)C1O (stereo not drawn)	300 °C
O=C(Cl)OCC1c2ccccc2-c2ccccc21	63 °C
C=COC(C)=O	-93.2 °C
ClC1(Cl)CCCCC1	-47 °C
NC(=S)C1COc2ccccc2O1 (stereo not drawn)	180 to 183 °C
O=C(CBr)c1ccc(Cl)c(Cl)c1	57 °C
CC(C)(C)CC(C)(C)c1ccc(O)cc1	84.5 °C
CCOC(=O)c1c(NC(=O)C(Cl)Cl)sc2c1CCCC2	120 to 122 °C
CCCCCCCCCCC(C)O (stereo not drawn)	19 °C
N#CC12CCN(CC1)CC2	133 °C
C=C1C(C)C2C(Cc3ccccc3)NC(=O)C23OC(=O)C=CC(=O)CCCC(C)CC=CC3C1O (stereo not drawn)	193 to 195 °C
CCCCCCCCCCCC(C)CC (stereo not drawn)	-32 °C
COC12C(COC(N)=O)C3=C(C(=O)C(C)=C(Nc4cnccc4N)C3=O)N1CC1NC12 (stereo not drawn)	159 °C
CCC1(CCC(C)C)C(=O)NC(=O)NC1=O	156 °C
Nc1cc(C(F)(F)F)ccc1N1CCCCC1	41 to 43 °C
COC(=O)c1cc(C(=O)OC)cc([N+](=O)[O-])c1	122 °C
Cc1cc(C(N)=S)no1	169 to 172 °C
CNC(=O)Oc1cccc2ccccc12	142 °C
CC(C)Nc1nc(N)nc(Cl)n1	133 °C

Results, then the compound that gave them:

melting point	Compound
142 °C	BrCCCOc1ccc2cc3ccc(OCCCBr)cc3nc2c1
167 °C	COc1ccc(-c2nnc3n2NC(c2ccc(N(C)C)cc2)S3)cc1 (stereo not drawn)
99.5 to 102 °C	N#CCCn1ccnc1-c1ccccc1
106 °C	COc1cc(N)c(C(C)=O)cc1OC
164 °C	Cc1ccc(C)c(CNC2=CC(=O)c3ccccc3C2=O)c1
83.5 °C	COc1ccc2ccc(=O)oc2c1CC=C(C)C
74 °C	CCOC=C(C#N)S(=O)(=O)c1ccccc1
238 °C	N#C/C(=N/Nc1cccc(C(F)(F)F)c1)c1nc2ccccc2c(=O)[nH]1
300 °C	Nc1ccc2cc(S(=O)(=O)O)cc(S(=O)(=O)O)c2c1
102 °C	COC(=O)c1ccc(I)c([N+](=O)[O-])c1
148 °C	OC1Cc2cccc3cccc1c23 (stereo not drawn)
158 °C	COc1ccc(C=CC(=O)Oc2ccc(C=CC(=O)c3ccccc3)cc2)cc1
158 °C	O=C(O)COc1ccccc1[N+](=O)[O-]
179 to 182 °C	O=c1cc(C(F)(F)F)c2ccc(O)cc2o1
124 °C	CC(=O)/C(=N\Nc1ccc(Cl)cc1)C(=O)C(F)(F)F
114 °C	COc1cc(C(=O)c2ccc(Cl)cc2Cl)c([N+](=O)[O-])cc1OC
132 °C	Cc1ccc(-c2csc(/C(C#N)=N\Nc3cccc(C)c3)n2)cc1
151 to 153 °C	CC(=O)Nc1cc(C)ccc1O
134 °C	CC(=O)Oc1ccc(C(c2ccc(OC(C)=O)cc2)c2ccccn2)cc1
84 to 87 °C	CCCCc1ccc(/N=N/c2ccc(OC(=O)CC)cc2)cc1
46 to 54 °C	COc1ccc(C=O)cn1
47.5 °C	CC#CCOS(=O)(=O)c1ccc(C)cc1

melting point	Compound
214 °C	NC(=S)Nc1ccc(O)cc1
115 °C	COc1ccc2cc(C(O)C(C)O)ccc2c1 (stereo not drawn)
171 to 173 °C	CCCc1c(C)nc(NC(=O)NS(=O)(=O)c2cccs2)nc1Cl
62.5 to 64 °C	O=C(CCl)Nc1cccc(C(F)(F)F)c1
132 °C	CC(=O)c1ccc(O)c([N+](=O)[O-])c1
204 °C	O=C(NCCc1ccccc1)c1cc([N+](=O)[O-])cc([N+](=O)[O-])c1
228 °C	O=C(O)C1C(c2ccccc2)C(C(=O)O)C1c1ccccc1 (stereo not drawn)
279 °C	CC(=O)n1c(C)cc2cc3cc(C)[nH]c3cc21
134 to 139 °C	CC(C)(C)OC(=O)N[C@@H](Cc1c[nH]c2ccccc12)C(=O)O
173 to 175 °C	CC(C)n1cc(C(N)=S)c(=O)n(Cc2ccccc2)c1=O
201 °C	Nc1cc(N)c(/C=C/c2ccccc2)cc1/C=C/c1ccccc1
295 °C	O=C1OC2(c3ccccc31)c1cc(Br)c(O)c(Br)c1Oc1c2cc(Br)c(O)c1Br
165 °C	CC(C)N1CSc2nnc(-c3cccc([N+](=O)[O-])c3)n2C1
76.8 °C	Cc1cccc(C(=O)C(=O)c2ccccc2)n1
149 to 152 °C	COc1ccc(C(C=C(SC)SC)=C(C#N)C#N)cc1
-8 °C	CCCCCCC#CC(=O)O
73 °C	BrCCc1ccc(CCBr)cc1
203 to 205 °C	CCN(CC)c1ccc2nc3c4ccccc4c(=O)cc-3oc2c1
231 to 232 °C	C/C(=N\c1ccc(O)c(C)c1)c1c(O)c2ccccc2n(-c2ccccc2)c1=O
53.5 °C	Cc1cccc2ccc3ccccc3c12
107 to 109 °C	CCCCc1ccc(NC(C)=O)cc1
153 to 155 °C	S=c1ssc(S)c1-c1ccccc1

melting point	Compound
193 °C	N#C/C(=N\Nc1ccc(S(=O)(=O)O)cc1)c1nc2ccccc2s1
151 to 152 °C	O=P(c1ccccc1)(c1ccccc1)C1C=C(c2ccccc2)C=C(c2ccccc2)O1 (stereo not drawn)
57 °C	C1=CCC(c2ccccc2)(c2ccccc2)C=C1
148 to 149 °C	Nc1n[nH]c(N)c1Cc1ccccc1
184 °C	O=C(C1=NOC2C(=O)N(c3ccc(Br)cc3)C(=O)C12)c1ccc(Cl)cc1 (stereo not drawn)
44 °C	COC(=O)c1cncc(C)c1
16.1 °C	CCCCCCS(=O)(=O)O
271 to 274 °C	O=C(O)c1ccc(-c2cccnc2)cc1
-26 °C	CCCCCCCCCOC(C)=O
232 °C	Oc1ccc(C(O)(c2ccccc2)c2ccc(O)c3ccccc23)c2ccccc12
261 to 263 °C	COc1cc(C(=O)Nc2nnc(-c3ccc(Cl)cc3)o2)cc(OC)c1OC
186 °C	Cc1ccc(-c2csc3nc(C(F)(F)F)cc(=O)n23)cc1
140 °C	Oc1c(Br)ccc2cccnc12
144 to 145 °C	CCOC(=O)NNC(=O)Nc1ccccc1
115 to 116 °C	O/N=C(/C=Cc1ccccc1)c1ccccc1
186 to 189 °C	CCN(CC)c1ccc(/C=C2\CC/C(=C\c3ccc(N(CC)CC)cc3)C2=O)cc1
202 to 203 °C	c1cc(-c2cnc3ccccc3n2)cc(-c2cnc3ccccc3n2)c1
100 °C	CCOc1ccc(NC(=O)OC(C)C)cc1OCC
130 °C	CC(=O)c1ccc2c(c1)Cc1ccccc1-2
123 °C	Cc1cccc2c1ccc1ccccc12
94 to 98 °C	Nc1ccccc1-n1cccc1
200 °C	O=C(O)c1cc2cc([N+](=O)[O-])ccc2oc1=O
